From paper PMC4368859 (International Journal of Neuropsychopharmacology, 2014)
Several values for one entry are separate records, joined by “and”; a condition that tells them apart may be missing. Equal values may be shown once.

Experiments:
[1] = system: cocaine transporter in hCMEC/D3 cells; experiment: trans-stimulation of [^3H]-cocaine exit from hCMEC/D3 cells; details: 10 µM unlabeled compound in KH buffer after 5 minutes loading; vs control
[2] = ref Gatley et al., 1994; Chow et al., 2001; cited from earlier work
[3] = system: [^3H]-cocaine uptake in hCMEC/D3 cells; format: cell-based, human
[4] = system: OCTs; experiment: MPP+ transport in hCMEC/D3 cells; format: cell-based, human; details: TEA 2mM, data not shown
[5] = pKa and ionised/neutral fraction of the drug as a function of pH; format: physicochemical
[6] = system: hCMEC/D3 cells; experiment: cocaine uptake in hCMEC/D3 cells; format: in vitro ADME, human
[7] = in water; ref Lu et al., 2007; cited from earlier work
[8] = system: mouse luminal BBB; experiment: cocaine brain transport by in situ mouse carotid perfusion; format: in vivo; details: for Brain transport (K in): 9nM; for decrease in [^3H]-cocaine transport by unlabeled cocaine: unlabeled cocaine 10mM, mouse BBB
[9] = in vivo, concentrations less than K m

## CN1[C@H]2CC[C@@H]1[C@@H](C(=O)O)[C@@H](OC(=O)c1ccccc1)C2 [Benzoylecgonine]
[1]
  trans-stimulation of [^3H]-cocaine exit (trans-efflux zero): lack of a trans-stimulation effect
[2]
  brain uptake: no significant brain uptake
[3]
  Relative uptake of [^3H]-cocaine: 104.1±3.0% and 94.2±14.9% and 72.0±11.4 %

## COc1ccc2c3c1O[C@H]1[C@@H](O)C=C[C@H]4[C@@H](C2)N(C)CC[C@@]341 [Codeine]
[3]
  Relative uptake of [^3H]-cocaine: 63.4±5.0 %

## CCCC(C(=O)c1ccc2c(c1)OCO2)N1CCCC1 (stereo not drawn) [MDPV, 3,4-methylenedioxypyrovalerone]
[1]
  trans-stimulation of [^3H]-cocaine exit (trans-efflux zero): strongly stimulated
[3]
  Relative uptake of [^3H]-cocaine: 18.1±0.4 %

## C=CCN1CC[C@]23c4c5ccc(O)c4O[C@H]2C(=O)CC[C@@]3(O)[C@H]1C5 [Naloxone]
[3]
  Relative uptake of [^3H]-cocaine: 28.3±0.9 %

## CN1CCC[C@H]1c1cccnc1 [Nicotine]
[1]
  trans-stimulation of [^3H]-cocaine exit (trans-efflux zero): strongly stimulated

## CC[N+](CC)(CC)CC [TEA, tetraethylammonium]
[4]
  effect on MPP^+ transport: significantly inhibited
[3]
  Relative uptake of [^3H]-cocaine: 120.6±9.8%

## COc1ccc(CCN(C)CCCC(C#N)(c2ccc(OC)c(OC)c2)C(C)C)cc1OC (stereo not drawn) [Verapamil]
[3]
  Relative uptake of [^3H]-cocaine: 3.7±0.2 %

## COC(=O)[C@H]1[C@@H](OC(=O)c2ccccc2)C[C@@H]2CC[C@H]1N2C [cocaine, (−)-Cocaine]
[5]; pH 7.4
  positively charged fraction: 94%
  uncharged fraction: 6%
[5]; pHe 5.40
  neutral fraction: 0.06%
[5]; pHe 5.40 or 6.40
  cationic form: > 99.4%
[5]; pHe 6.40
  neutral fraction: 0.6%
[5]; pHe 7.40
  neutral fraction: 5.9%
[6]; KH buffer pH 7.40, 37°C, 5 minutes, 0.05–10mM
  K m of carrier-mediated uptake: 123 ± 23 µM
[6]; NH4Cl 30mM prepulse
  increase in uptake after NH4Cl prepulse (acidification): 1.85 fold
[6]; NH4Cl 30mM, pHe 7.40
  effect of NH4Cl pulse (alkalinization) on uptake: significantly decreased
[6]; pH 7.40
  K passive (passive diffusion): 1.09 ± 0.09 µL/min/mg
[6]; pHe 6.40
  increase in uptake vs pHe 5.40: 2.5 fold
[6]; pHe 7.40
  increase in uptake vs pHe 5.40: 4.6 fold
[6]; sodium replaced, pHe 7.40, 5 minutes, control 100.0±9.0%
  transport in NMDG-buffer relative to KH buffer control: 97.0±9.7%
[7]
  basic pK a: 8.6
[8]; C57Bl/6 mice, 60 seconds, Krebs-carbonate pH 7.40
  Brain transport (K in): 19 ± 2 µL/s/g
[8]; DBA mice, 60 seconds, Krebs-carbonate pH 7.40
  Brain transport (K in): 21 ± 2 µL/s/g
[8]; Fvb [Oct1,Oct2(−/−)] mice, 60 seconds
  Brain transport (K in): 19 ± 2 µL/s/g
[8]; Fvb wild-type mice, 60 seconds, Krebs-carbonate pH 7.40
  Brain transport (K in): 20 ± 2 µL/s/g
[8]; Swiss mice, 60 seconds, Krebs-carbonate pH 7.40
  Brain transport (K in): 20 ± 2 µL/s/g
[8]; Swiss mice, pHe 7.40
  K passive (passive diffusion): 4.5±1.0 µL/sec/g and ~ 4.5 µL/sec/g
  apparent K m of carrier-mediated brain flux: 4500 ± 1800 µM
[8]; Swiss mice, pHe 7.40, per g of brain
  V max of carrier-mediated brain flux: 127.2 ± 34.5 nmol/s/g
[8]; compared with the vascular flow marker diazepam
  total brain extraction: about 47%
[8]; from Equation 7
  concentration at which passive diffusion and carrier-mediated flux are equal: around 24 mM
[8]; [9]
  carrier-mediated influx relative to passive diffusion: 3.4 times
  carrier-mediated transport rate: ~ 15.5 µL/sec/g
[8]; mice, 60 seconds, pHe 6.40
  increase in brain transport vs pHe 5.40: 4.7 fold
[8]; mice, 60 seconds, pHe 7.40
  increase in brain transport vs pHe 5.40: 16.9 fold
[8]; mice, NH4Cl 30mM, pHe 7.40, 60 seconds
  reduction in brain transport by NH4Cl pulse: 1.8 fold
[8]; mice, carbonate-free HEPES buffer
  decrease in brain transport with HEPES-buffer vs Krebs-carbonate buffer: 1.8 fold
[8]; mice, sodium-free and chloride-free buffer
  increase in K in with mannitol perfusion buffer vs Krebs-carbonate: 1.35 fold
[8]; mice, vs regular Krebs-carbonate buffer
  effect of lithium (Na+-free) buffer on brain transport: no significant change
[8]; pharmacological concentration range
  net brain transport rate (K in) under unsaturated conditions: about 20 µL/sec/g
[8]; pHe 5.40
  decrease in [^3H]-cocaine transport by unlabeled cocaine: 1.8 fold
[8]; pHe 6.40
  decrease in [^3H]-cocaine transport by unlabeled cocaine: 2.0 fold
[8]; pHe 7.40
  decrease in [^3H]-cocaine transport by unlabeled cocaine: 1.9 fold

## Ecgonine
[3]
  Relative uptake of [^3H]-cocaine: 103.9±8.7% and 93.2±2.5% and 75.3±5.0 %
